The source of these data is patent US9676704B2, “Pesticidal compositions and processes related thereto” (Dow AgroSciences LLC, priority 2014, dated 2017).

For orientation: mortality means the percentage killed.

The test system of one test is Cabbage Looper (CL). The experiment in a line: Bioassays on CL, 128-well diet tray assay. In kind it is in vivo. Particulars: Trichoplusia ni; for mortality at 50 µg/cm2: 168 h, 50 μg/cm^2 on artificial diet, second instar larvae, five to seven days, 25° C., read-out: CL % Control (or Mortality) rating; for mortality at 0.05 µg/cm2: 0.05 μg/cm^2; for mortality at 0.05 µg/cm2 / mortality at 0.5 µg/cm2 / mortality at 5 µg/cm2: read-out: CL Percent control (or mortality); for mortality at 0.5 µg/cm2: 0.5 μg/cm^2; for mortality at 5 µg/cm2: 5 μg/cm^2. As to the method: Bioassays on CL were conducted using a 128-well diet tray assay. One to five second instar CL larvae were placed in each well (3 mL) of the diet tray that had been previously filled with 1 mL of artificial diet to which 50 μg/cm^2 of the test compound (dissolved in 50 μL of 90:10 acetone-water mixture) had been applied (to each of eight wells) and then allowed to dry. Trays were covered with a clear self-adhesive cover, and held at 25° C., 14:10 light-dark for five to seven days. Percent mortality was recorded for the larvae in each well; activity in the eight wells was then averaged. The results are indicated in the table entitled “Table ABC: Assay Results (F)”, “Table ABCD: Assay Results (C)”, and “Table ABCDE: Assay Results (P)” (See Table Section).
(§1) Bioassays on BAW and CL were conducted according to the procedures outlined in Example A: Bioassays on Beet Armyworm (“BAW”) and Cabbage Looper (“CL”) using the following concentrations: 5, 0.5, and 0.05 μg/cm^2.

Another test has as its system Beet Armyworm (BAW). The test is described as follows: Bioassays on BAW, 128-well diet tray assay. In kind it is in vivo. Particulars: Spodoptera exigua; for mortality at 50 µg/cm2: 168 h, 50 μg/cm^2 on artificial diet, second instar larvae, five to seven days, 25° C., read-out: BAW % Control (or Mortality) rating; for mortality at 0.05 µg/cm2: 0.05 μg/cm^2; for mortality at 0.05 µg/cm2 / mortality at 0.5 µg/cm2 / mortality at 5 µg/cm2: read-out: BAW Percent control (or mortality); for mortality at 0.5 µg/cm2: 0.5 μg/cm^2; for mortality at 5 µg/cm2: 5 μg/cm^2. As to the method:
Bioassays on BAW were conducted using a 128-well diet tray assay. one to five second instar BAW larvae were placed in each well (3 mL) of the diet tray that had been previously filled with 1 mL of artificial diet to which 50 μg/cm^2 of the test compound (dissolved in 50 μL of 90:10 acetone-water mixture) had been applied (to each of eight wells) and then allowed to dry. Trays were covered with a clear self-adhesive cover, and held at 25° C., 14:10 light-dark for five to seven days. Percent mortality was recorded for the larvae in each well; activity in the eight wells was then averaged. The results are indicated in the tables entitled “Table ABC: Assay Results (F)”, “Table ABCD: Assay Results (C)”, and “Table ABCDE: Assay Results (P)” (See Table Section).
as §1

Take `CNCCNC(=O)c1ccc(/C=C/C(c2cc(Cl)c(Cl)c(Cl)c2)C(F)(F)F)cc1C(F)(F)F` (stereo not drawn) [Compound C115, (E)-N-(2-(methylamino)ethyl)-4-(4,4,4-trifluoro-3-(3,4,5-trichlorophenyl)but-1-en-1-yl)-2-(trifluoromethyl)benzamide]: the mortality at 50 µg/cm2 in the test on Cabbage Looper (CL) was 0%; in the test on Beet Armyworm (BAW), 50 to 100%.

Consider `C[C@H](NC(=O)CCC(F)(F)F)NC(=O)c1ccc(/C=C/C(c2cc(Cl)c(Cl)c(Cl)c2)C(F)(F)F)cc1C(F)(F)F` (stereo partly drawn) [Compound F1, 4-((E)-4,4,4-Trifluoro-3-(3,4,5-trichlorophenyl)but-1-en-1-yl)-N—((R)-1-(4,4,4-trifluorobutanamido)ethyl)-2-(trifluoromethyl)benzamide], for which, in the test on Cabbage Looper (CL), the mortality at 50 µg/cm2 was 50 to 100%, the mortality at 0.05 µg/cm2 worked out at 97%, the mortality at 0.5 µg/cm2 is 100% and the mortality at 5 µg/cm2 worked out at 100%. Besides, in the test on Beet Armyworm (BAW), the mortality at 50 µg/cm2 was in the range of 50 to 100%, the mortality at 0.05 µg/cm2 was determined as 100%, the mortality at 0.5 µg/cm2 stood at 100% and the mortality at 5 µg/cm2 was found to be 100%.

In the case of `O=C(CCC(F)(F)F)NCNC(=O)c1ccc(/C=C/C(c2cc(Cl)c(Cl)c(Cl)c2)C(F)(F)F)cc1C(F)(F)F` (stereo not drawn) [Compound F13, (E)-4-(4,4,4-Trifluoro-3-(3,4,5-trichlorophenyl)but-1-en-1-yl)-N-((4,4,4-trifluorobutanamido)methyl)-2-(trifluoromethyl)benzamide], the mortality at 50 µg/cm2 with Cabbage Looper (CL) and in the test with Beet Armyworm (BAW) was 50 to 100% in each case.

As for `C[C@H](NC(=O)CC(F)(F)F)NC(=O)c1ccc(/C=C/C(c2cc(Cl)c(F)c(Cl)c2)C(F)(F)F)cc1C(F)(F)F` (stereo partly drawn) [Compound P1, 4-((E)-3-(3,5-Dichloro-4-fluorophenyl)-4,4,4-trifluorobut-1-en-1-yl)-2-(trifluoromethyl)-N—((R)-1-(3,3,3-trifluoropropanamido)ethyl)benzamide], the mortality at 50 µg/cm2 in the test with Cabbage Looper (CL) and in the test on Beet Armyworm (BAW) was 50 to 100% each time.

With `Cc1cc(/C=C/C(c2cc(Cl)c(Br)c(Cl)c2)C(F)(F)F)ccc1C(=O)N[C@H](C)NC(=O)CC(F)(F)F` (stereo partly drawn) [Compound P8, 4-((E)-3-(4-Bromo-3,5-dichlorophenyl)-4,4,4-trifluorobut-1-en-1-yl)-2-methyl-N—((R)-1-(3,3,3-trifluoropropanamido)ethyl)benzamide], the mortality at 50 µg/cm2 in the test on Cabbage Looper (CL) and with Beet Armyworm (BAW) was 50 to 100% throughout.

As for `C[C@H](NC(=O)CCC(F)(F)F)NC(=O)c1ccc(/C=C/C(c2cc(Cl)c(F)c(Cl)c2)C(F)(F)F)cc1C(F)(F)F` (stereo partly drawn) [Compound P9, 4-((E)-3-(3,5-Dichloro-4-fluorophenyl)-4,4,4-trifluorobut-1-en-1-yl)-N—((R)-1-(4,4,4-trifluorobutanamido)ethyl)-2-(trifluoromethyl)benzamide], the mortality at 50 µg/cm2 in the test with Cabbage Looper (CL) and in the test with Beet Armyworm (BAW) was 50 to 100% each time.

With `Cc1cc(/C=C/C(c2cc(Br)cc(Br)c2)C(F)(F)F)ccc1C(=O)N[C@H](C)NC(=O)CCC(F)(F)F` (stereo partly drawn) [Compound P15, 4-((E)-3-(3,5-Dibromophenyl)-4,4,4-trifluorobut-1-en-1-yl)-2-methyl-N—((R)-1-(4,4,4-trifluorobutanamido)ethyl)benzamide], the mortality at 50 µg/cm2 with Cabbage Looper (CL) and with Beet Armyworm (BAW) was 50 to 100% each time.

Take `Cc1cc(/C=C/C(c2cc(Cl)c(Br)c(Cl)c2)C(F)(F)F)ccc1C(=O)N[C@H](C)NC(=O)CCC(F)(F)F` (stereo partly drawn) [Compound P16, 4-((E)-3-(4-Bromo-3,5-dichlorophenyl)-4,4,4-trifluorobut-1-en-1-yl)-2-methyl-N—((R)-1-(4,4,4-trifluorobutanamido)ethyl)benzamide]: the mortality at 50 µg/cm2 in the test on Cabbage Looper (CL) and in the test on Beet Armyworm (BAW) was 50 to 100% throughout.

In the case of `Cc1cc(/C=C/C(c2cc(Cl)c(Cl)c(Cl)c2)C(F)(F)F)ccc1C(=O)N[C@H](C)NC(=O)CC(F)(F)F` (stereo partly drawn) [Compound P22, 2-Methyl-4-((E)-4,4,4-trifluoro-3-(3,4,5-trichlorophenyl)but-1-en-1-yl)-N—((R)-1-(3,3,3-trifluoropropanamido)ethyl)benzamide], in the test with Cabbage Looper (CL), the mortality at 50 µg/cm2 fell in the range of 50 to 100%, the mortality at 0.05 µg/cm2 is 63%, the mortality at 0.5 µg/cm2 was determined as 100% and the mortality at 5 µg/cm2 is 100%. Also, in the test with Beet Armyworm (BAW), the mortality at 50 µg/cm2 was in the range of 50 to 100%, the mortality at 0.05 µg/cm2 came out at 25%, the mortality at 0.5 µg/cm2 is 100% and the mortality at 5 µg/cm2 was 100%.

For the molecule `Cc1cc(/C=C/C(c2cc(Cl)c(Cl)c(Cl)c2)C(F)(F)F)ccc1C(=O)N[C@H](C)NC(=O)CCC(F)(F)F` (stereo partly drawn) [Compound P25, 2-Methyl-4-((E)-4,4,4-trifluoro-3-(3,4,5-trichlorophenyl)but-1-en-1-yl)-N—((R)-1-(4,4,4-trifluorobutanamido)ethyl)benzamide], in the test with Cabbage Looper (CL), the mortality at 50 µg/cm2 is 50 to 100%, the mortality at 0.05 µg/cm2 was 100%, the mortality at 0.5 µg/cm2 came to 100% and the mortality at 5 µg/cm2 was 100%. Besides, in the test with Beet Armyworm (BAW), the mortality at 50 µg/cm2 was in the range of 50 to 100%, the mortality at 0.05 µg/cm2 turned out to be 100%, the mortality at 0.5 µg/cm2 amounted to 100% and the mortality at 5 µg/cm2 stood at 100%.

On to `CC(CC(F)(F)F)C(=O)N[C@@H](C)NC(=O)c1ccc(/C=C/C(c2cc(Cl)c(Cl)c(Cl)c2)C(F)(F)F)cc1C(F)(F)F` (stereo partly drawn) [Compound P30, N—((R)-1-(4,4,4-Trifluoro-2-methylbutanamido)ethyl)-4-((E)-4,4,4-trifluoro-3-(3,4,5-trichlorophenyl)but-1-en-1-yl)-2-(trifluoromethyl)benzamide], for which the mortality at 50 µg/cm2 in the test with Cabbage Looper (CL) and in the test on Beet Armyworm (BAW) was 50 to 100% each time.

Regarding `C[C@H](NC(=O)CS(C)(=O)=O)NC(=O)c1ccc(/C=C/C(c2cc(Cl)c(Cl)c(Cl)c2)C(F)(F)F)cc1C(F)(F)F` (stereo partly drawn) [Compound P43, N—((S)-1-(2-(Methylsulfonyl)acetamido)ethyl)-4-((E)-4,4,4-trifluoro-3-(3,4,5-trichlorophenyl)but-1-en-1-yl)-2-(trifluoromethyl)benzamide], the mortality at 50 µg/cm2 in the test with Cabbage Looper (CL) and with Beet Armyworm (BAW) was 50 to 100% throughout.

Regarding `C[C@H](NC(=O)CCS(C)(=O)=O)NC(=O)c1ccc(/C=C/C(c2cc(Cl)c(Cl)c(Cl)c2)C(F)(F)F)cc1C(F)(F)F` (stereo partly drawn) [Compound P47, N—((R)-1-(3-(methylsulfonyl)propanamido)ethyl)-4-((E)-4,4,4-trifluoro-3-(3,4,5-trichlorophenyl)but-1-en-1-yl)-2-(trifluoromethyl)benzamide], the mortality at 50 µg/cm2 in the test on Cabbage Looper (CL) and in the test on Beet Armyworm (BAW) was 50 to 100% in each case.

Turning to `CSCCC(=O)N[C@@H](C)NC(=O)c1ccc(/C=C/C(c2cc(Cl)c(Cl)c(Cl)c2)C(F)(F)F)cc1C(F)(F)F` (stereo partly drawn) [Compound P53, N—((R)-1-(3-(Methylthio)propanamido)ethyl)-4-((E)-4,4,4-trifluoro-3-(3,4,5-trichlorophenyl)but-1-en-1-yl)-2-(trifluoromethyl)benzamide], the mortality at 50 µg/cm2 in the test on Cabbage Looper (CL) and in the test with Beet Armyworm (BAW) was 50 to 100% throughout.

As for `CSCC(=O)N[C@@H](C)NC(=O)c1ccc(/C=C/C(c2cc(Cl)c(Cl)c(Cl)c2)C(F)(F)F)cc1C(F)(F)F` (stereo partly drawn) [Compound P54, N—((S)-1-(2-(Methylthio)acetamido)ethyl)-4-((E)-4,4,4-trifluoro-3-(3,4,5-trichlorophenyl)but-1-en-1-yl)-2-(trifluoromethyl)benzamide], the mortality at 50 µg/cm2 with Cabbage Looper (CL) and in the test on Beet Armyworm (BAW) was 50 to 100% each time.

`C[C@H](NC(=O)CCC(F)(F)F)NC(=O)c1ccc(/C=C/C(c2cc(Cl)c(Cl)c(Cl)c2)C(F)(F)F)cc1` (stereo partly drawn) [FC1, 4-((E)-4,4,4-Trifluoro-3-(3,4,5-trichlorophenyl)but-1-en-1-yl)-N—((R)-1-(4,4,4-trifluorobutanamido)ethyl)benzamide]: in the test with Cabbage Looper (CL), the mortality at 0.05 µg/cm2 was determined as 0%, the mortality at 0.5 µg/cm2 worked out at 0% and the mortality at 5 µg/cm2 worked out at 71%. Besides, in the test on Beet Armyworm (BAW), the mortality at 0.05 µg/cm2 worked out at 0%, the mortality at 0.5 µg/cm2 was 0% and the mortality at 5 µg/cm2 was 13%.

For the molecule `C[C@H](NC(=O)CC(F)(F)F)NC(=O)c1ccc(/C=C/C(c2cc(Cl)c(Cl)c(Cl)c2)C(F)(F)F)cc1` (stereo partly drawn) [FC2, 4-((E)-4,4,4-Trifluoro-3-(3,4,5-trichlorophenyl)but-1-en-1-yl)-N—((R)-1-(3,3,3-trifluoropropanamido)ethyl)benzamide], in the test on Cabbage Looper (CL), the mortality at 0.05 µg/cm2 came to 0%, the mortality at 0.5 µg/cm2 amounted to 0% and the mortality at 5 µg/cm2 was determined as 0%. Moreover, in the test with Beet Armyworm (BAW), the mortality at 0.05 µg/cm2 stood at 0%, the mortality at 0.5 µg/cm2 was 0% and the mortality at 5 µg/cm2 amounted to 0%.
